Blank lines part the entries; values can stand above or below the substance they belong to. Where no end group is shown, it is not given here.
Key:
[1] = Half-life of peptide in rats; conditions: rat, in vivo, preliminary studies
Procedure: Therefore, we tested whether splenocytes obtained from rats treated with the peptides in vivo could differentiate into CTL ex vivo. In preliminary studies, the half-life of the B7.75-84 peptide was determined to be 2–3 hours in rats.

[2] = test system: CD8+CTL line specific for HLA-A2; assay: Cytotoxicity assay: inhibition of lysis by established CTL, 51Cr-labeled JY targets; format: cell-based, human; conditions: for inhibition of lysis by established CTL: HLA-A2 specific CD8+CTL, JY targets, peptides 100 μg/ml, 4 h assay
Procedure: Cytotoxicity Assay. CTL assays were performed as described using ^51Cr-labeled EBV transformed B cells expressing the appropriate HLA allele as targets [[…] et al., J. Immunol. (1982) 129:2001]. In the present protocol, a CD8+CTL line specific for HLA-A2 was tested in the presence of various peptides for lysis of ^51Cr-labeled JY targets. Peptides were added to a final concentration of 100 μg/ml at the initiation of the 4 h assay. Each determination was the mean of triplicate wells. […] In these determinations, inhibition of cytolysis, as described above, employed the CTL cell line AJY, a long term CD8+CTL line specific for HLA-A2 and the target cell was the B-lymphoblastoid cell line JY (HLA-A2, B7). The cytotoxicity assay was performed as described by Clayberger et al., J. Exp. Med. (1984) 162:1709-1714; and Reiss et al., Proc Natl Acad Sci USA (1980) 77:5432-5436. The peptides were preincubated for 30 min with 1-3×10^3 CTLs before addition of 10^3 51Cr-labeled B-lymphoblastoid target cells. The results are reported for varying concentrations of the peptide with varying ratios of the two cell lines.

[3] = test system: Lew specific CTL precursors in splenocytes; assay: Limiting dilution assay for CTL precursors in splenocytes after in vivo peptide; parameters: species or system rat; conditions: PVG rats; for [CTL precursor frequency]^−1: single iv 2 mg, Lew stimulators
Procedure: The effect of peptides on CTL precursor frequencies in splenocytes was tested as follows. Limiting dilution analysis was carried out essentially as described (Moeller et al. 1993, supra; Skinner and Marbrook. J. Exp. Med. (1976) 143:1562). Briefly, spleens were removed from naive animals or from animals that had received an allograft a minimum of 60 days earlier and then teased into a single cell suspension. Responder cells were plated from 1000 to 40,000 cells per well (24 replicates per concentration) into round bottom microliter wells in RPMI 1640 supplemented with 10% fetal bovine serum (Hyclone, Logan, Utah), 2 mM L-glutamine, 5×10^−5M β-mercaptoethanol, 100 U/ml penicillin, 100 μg/ml streptomycin, 20% supernatant from Concanavalin A activated rat spleen cells, and 50 μM α-methyl mannoside. Then, 5×10^5 irradiated (2000 rads) stimulator cells were added to each well and plates were incubated in a humidified CO2 incubator. After 5 days, aliquots were removed and tested for lysis of ^51Cr-labeled Concanavalin A activated blasts. Aliquots of supernatant were counted in a gamma counter and CTL precursor frequency determined by linear regression (Skinner and Marbrook. 1976, supra). Wells were considered positive if specific release was >10%.
PVG (RT1^c) or ACI […] rats were treated with a single intravenous injection of saline or 2 mg of A2.75-84, B7.75-84, B2702.75-84, or RT1^a.75-84 peptide. Their spleens were removed on different days after peptide treatment, cultured under limiting dilution conditions for 5 days with irradiated (2000R) splenocytes from Lewis rats; i.e., Lew (RT1^1) stimulator cells, and assayed for lysis of ^51Cr-labeled Lew blasts. CTL precursor frequency was determined by linear regression analysis.

half-life [1]: 2 to 3 h
Substance: RESLRNLRGY [B7.75–84]

Substance: B2702.70–84: SEQ ID NO:33, the 15-mer; Table 1 sequence read from dashes: KAQTDRENLRIALRY (listed as Homo sapiens)
inhibition of lysis by established CTL [2]: comparably effective in inhibiting cytolysis to B2072.75-84

Substance: B7.84–75/75–84: SEQ ID NO:27 (also NO:35); Table 1 sequence read from dashes: YGRLNRLSERRESLRNLRGY (listed as Homo sapiens)
inhibition of lysis by established CTL [2]: did not inhibit CTL-mediated lysis at any concentration tested

Substance: RVDLRTLRGY (listed as Homo sapiens) [RT1A.75–84, peptide corresponding to the same residues from a rat MHC class I molecule, reference compound]
[CTL precursor frequency]^−1 ([3]; 0 days after peptide injection): 56,583
[CTL precursor frequency]^−1 ([3]; 1 day after peptide injection): 54,631
[CTL precursor frequency]^−1 ([3]; 7 days after peptide injection): 55,647
[CTL precursor frequency]^−1 ([3]; 10 days after peptide injection): 56,583
precursor frequency of Lew specific cells in splenocytes (1 in) ([3]; independent of the day on which the spleen was removed): ~55,000

Substance: REDLRIALRY (listed as Homo sapiens) [B2702.75–84D^77, aspartic replaces asparagine at position 77]
inhibition of lysis by established CTL [2]: did not inhibit lysis

Substance: WDRETQICKAKAQTDRENLRIALRY [B2702.60–84]
potency relative to B2702.75-84, based on concentration required to achieve 50% inhibition of cytotoxicity [2]: approximately 5 fold

Substance: RENLRILLRY (listed as Homo sapiens) [B2702.75–84L^81, leucine replaces alanine at position 81]
inhibition of lysis by established CTL [2]: inhibited lysis comparably to 02.75-84

Substance: B2702.75–84T^80: SEQ ID NO:25; threonine replaces isoleucine at position 80: RENLRTALRY (listed as Homo sapiens)
inhibition of lysis by established CTL [2]: did not inhibit lysis
